Source: US20080207488A1, “Method for Detecting Peptides Comprising a Cross-B Structure” (priority 2005, published 2008)
Entries after “also recorded” stand apart in the source; their conditions may differ.

Experiments:
sRAGE = molecular target: T1, sRAGE (Homo sapiens, UniProt Q15109); test: Biacore surface plasmon resonance, binding to immobilized sRAGE; conditions: Hb-AGE 32, amyloid γ-globulins 62.5, albumin-AGE 3.9 μg ml^−1
T1 construct: comprises three domains spanning amino-acid residues 23-325; His-tag with thrombin cleavage site (N); made in house; host or cells: 293E cells (printed as '293E hamster embryonic kidney cells')
Description: The soluble extracellular part, of the receptor for AGE (sRAGE) was cloned, expressed and purified as follows (Q.-H. Zeng, Prof. P. Gros, Dept. of Crystal- & Structural Chemistry, Bijvoet Center for Biomolecular Research, Utrecht University, Utrecht, the Netherlands). Human cDNA of RAGE was purchased from RZPD (clone IRALp962E1737Q2, RZPD, Berlin, Germany). For PCRs, the gagatct[…] forward primer was used comprising a BglII site, and the gcggccgc[…] reverse primer with a NotI site. The soluble extracellular part of RAGE comprises three domains spanning amino-acid residues 23-325. The PCR product was cloned into a pTT3 vector, containing an amino-terminal His-tag and a thrombin cleavage site. The sRAGE was expressed in 293E hamster embryonic kidney cells at the ABC-protein expression facility (Utrecht University, Utrecht, the Netherlands). […]
Binding of cross-β structure conformation containing peptides/proteins was studied using surface plasmon resonance technology with a Biacore 2000 apparatus (Biacore AB, Uppsala, Sweden). […] Binding of albumin-AGE was determined with a solution of 3.9 μg ml^−1 albumin-AGE in running buffer. albumin-AGE was filtered on a Millex-GV 0.22 μm filter unit (Millipore). […] Binding of Hb-AGE was also tested after centrifugation for 10 min. at 16,000*g alternative to filtration. tPA activation before and after filtration was assessed with a Plg-activation assay. […]

[1] = test system: human tissue-type plasminogen activator finger EGF (tPA F-EGF) fragment; test: ELISA, binding of tPA F-EGF to coated (mis)folded proteins; conditions: coated protein, FIG. 7A, I; listed as BSA-AGE
Protocol: The plates were blocked using Blocking reagent (Roche 1112589). A dilution series of the protein of interest was applied to the coated proteins and wells were subsequently washed using TBS-T (50 mM Tris pH 7.3, 150 mM NaCl and 0.1% Tween20). Bound protein is detected by the FLAG-tag using 1:3000 anti-FLAG-HRP (Sigma A-8592) in PBS-T, or by 1:1000 Ni-NTA-HRP (Qiagen 34530) in PBS-T. The HRP reaction Is performed using the TMB substrate (Biosource 4501103 or Tebu Bio 101TMB100-500), stopped using 10% H2SO4 and absorbance was measured at 450 nm.

platelets = test: Platelet aggregation assay; format: cell-based, human; conditions: 512-fold diluted plasma spiked with 250 μg/ml BSA-AGE, tenfold diluted
Protocol: In a next series of experiments, diluted plasma was enriched with a 250 μg/ml BSA-AGE spike and subsequently added to tPA F-biotin-Streptavidin-Sepharose. […] Results are compared to platelet activating properties of the spiked plasma before depletion of BSA-AGE.
Freshly drawn human aspirin free blood was mixed gently with citrate buffer to avoid coagulation. Blood was spinned for 15′ at 150*g at 20° C. and supernatant was collected; platelet rich plasma (PRP) with an adjusted final platelet number of 200,000 platelets/μl. Platelets were kept at 37° C. for at least 30′, before use in the assays, to ensure that they were in the resting state. For the aggregometric assays, 270 μl platelet solution was added to a glass tube and prewarmed to 37° C. A stirring magnet was added and rotation was set to 900 rpm, and the apparatus (Whole-blood aggregometer, Chrono-log, Havertown, Pa., USA) was blanked. A final volume of 30 μl of tester solution was added, containing the agonist of interest (buffer, control, diluted plasma with BSA-AGE, before and after contacting tPA F-biotin-Streptavidin-Sepharose), prediluted in HEPES-Tyrode buffer pH 7.2. Aggregation was followed in time by measuring the absorbance of the solution, that will decrease in time upon platelet aggregation. […] Aggregation was recorded for 15′ and expressed as the percentage of the transmitted light (0-100%).

Chain of human tissue-type plasminogen activator finger EGF (tPA F-EGF) fragment (P00750 39-120 limits assumed): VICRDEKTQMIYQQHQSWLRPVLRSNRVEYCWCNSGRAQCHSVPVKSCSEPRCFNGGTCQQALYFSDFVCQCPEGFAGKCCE
T1 sequence (Q15109 23-325): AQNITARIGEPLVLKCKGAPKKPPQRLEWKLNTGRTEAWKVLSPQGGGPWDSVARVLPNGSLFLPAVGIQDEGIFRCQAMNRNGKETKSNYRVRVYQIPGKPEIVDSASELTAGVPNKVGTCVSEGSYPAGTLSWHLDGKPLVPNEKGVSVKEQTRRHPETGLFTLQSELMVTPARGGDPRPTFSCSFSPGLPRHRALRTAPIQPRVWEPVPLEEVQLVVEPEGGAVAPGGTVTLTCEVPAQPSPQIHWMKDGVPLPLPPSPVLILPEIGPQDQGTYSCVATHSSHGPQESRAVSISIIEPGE

binding to immobilized sRAGE (sRAGE): bind
Substance: albumin-AGE: advanced glycation end-product modified bovine serum albumin
binding of tPA F-EGF [1]: High binding affinities; also recorded: high affinity binding | platelet aggregation (platelets): Platelets readily aggregate
